Entries after “also recorded” stand apart in the source; their conditions may differ.
How the values were obtained:
[1] = Solubility of mometasone furoate in solvents of prior art formulations; assay type: physicochemical
Procedure: Dissolution studies were performed with mometasone furoate in both the oil phase and the aqueous phase of the DIPA-containing lotion formulations of Examples 3 and 9 of DE102006034883 to determine the solubility of mometasone furoate in mg/ml in said formulations. For this purpose, first, the liquid excipients of the oil phase and the aqueous phase were mixed in the correct relative amounts to form the respective solvent systems; the low amounts of solid excipients contained in the formulations were not considered. Based on the weight ratio between oil and water phase, the theoretical solubility of mometasone furoate in the complete formulation can then be estimated using the formula: [proportion of oil phase·solubility in oil phase]+[proportion of aqueous phase·solubility in aqueous phase] For instance, for Ex. 3 of DE102006034883, the oil phase (paraffinum liquidum) makes up about 20 wt. %, the remainder is the aqueous phase. […] For instance, for Ex. 9 of DE102006034883, the oil phase makes up 27.88 wt. %, the remainder is the aqueous phase.

[2] = Re-precipitation of mometasone furoate in solvent systems of Ex. 10 and 11 of DE102006034883; assay type: physicochemical; conditions: then 40.56 parts of water
Procedure: Similar to Example 7 above, dissolution behaviour of mometasone furoate was also tested for the DIPA-containing prior art cream formulations described in examples 10 and 11 of DE102006034883. For this purpose, mometasone furoate was dissolved in solvent systems based on Ex. 10 and 11 as follows:
Ex. 10: 0.1 parts mometasone furoate were dissolved in 1 part phenoxy ethanol and 10 parts hexylene glycol, resulting in a clear solution.
Ex. 11: 0.1 parts mometasone furoate were dissolved in 1 part phenoxy ethanol and 10 parts diethylene glycol monoethyl ether (Transcutol®), resulting in a clear solution.

[3] = cited from earlier work

solubility in liquid paraffin [1]: about 0.05 mg/mL
Solubility of mometasone furoate ([1]; Aqueous phase Ex. 3 of DE102006034883 (phenoxy ethanol, polysorbate 40, Transcutol, water)): 150 µg/mL
Solubility of mometasone furoate ([1]; Aqueous phase Ex. 9 of DE102006034883 (phenoxy ethanol, Steareth 21, hexylene glycol, water)): 90 µg/mL
Solubility of mometasone furoate ([1]; Oil phase Ex. 3 of DE102006034883 (liquid paraffin)): 50 µg/mL
Solubility of mometasone furoate ([1]; Oil phase Ex. 9 of DE102006034883 (MCT, DIPA, liquid paraffin, Capryol 90)): 830 µg/mL
overall theoretical solubility ([1]; complete formulation Ex. 3 of DE102006034883): about 0.13 mg/ml
overall theoretical solubility ([1]; complete formulation Ex. 9 of DE102006034883): about 0.293 mg/ml
Compound: C[C@@H]1C[C@H]2[C@@H]3CCC4=CC(=O)C=C[C@]4(C)[C@@]3(Cl)[C@@H](O)C[C@]2(C)[C@@]1(OC(=O)c1ccco1)C(=O)CCl [mometasone furoate, 9α,21-dichloro-11β,17α-dihydroxy-16α-methylpregna-1,4-diene-3,20-dione 17-(2-furoate)]
behaviour on addition of aqueous phase ([2]; Ex. 10 solvent system: phenoxy ethanol, hexylene glycol): precipitation of mometasone furoate; also recorded: precipitated
behaviour on addition of aqueous phase ([2]; Ex. 11 solvent system: phenoxy ethanol, Transcutol®): precipitation of mometasone furoate; also recorded: precipitated
log P [3]: about 4
water solubility [3]: about 0.95 μg/mL

Source: patent US12447161B2, “Topical pharmaceutical formulation” (RaDes GmbH, priority 2021, dated 2025)
